# Reference: ChEMBL document CHEMBL1201862, “PubChem BioAssay data set” (2004)
#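 In this assay, cells in 96-well plates receive the compound at five concentrations for 48 hours. Endpoints are linearly interpolated between the surrounding concentrations. GI50 is the concentration that inhibits growth by half.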 The source made the active and inactive calls. Rule as the data show it: active = GI50 up to about 1.1 µM and inactive = higher.
# What was measured:
# Assay in all cases: DTP human tumour cell line panel, 48 h
# [1] = tested on: DLD-1
# [2] = tested on: UACC-257
# [3] = tested on: A498
# [4] = tested on: SW-620
# [5] = tested on: Hs-578T
# [6] = tested on: SR
# [7] = tested on: SN12C
# [8] = tested on: COLO 205
# [9] = tested on: LXFL 529
# [10] = tested on: Malme-3M
# [11] = tested on: MDA-N
# [12] = tested on: U-251
# [13] = tested on: HOP-18
# [14] = tested on: CCRF-CEM
# [15] = tested on: NCI-H226
# [16] = tested on: HOP-62
# [17] = tested on: MDA-MB-435
# [18] = tested on: MOLT-4
# [19] = tested on: SK-MEL-5
# [20] = tested on: KM-20L2
# [21] = tested on: DU-145
# [22] = tested on: SNB-78
# [23] = tested on: DMS-114
# [24] = tested on: RPMI-8226
# [25] = tested on: HCT-15
# [26] = tested on: HT-29
# [27] = tested on: UO-31
# [28] = tested on: SK-MEL-28
# [29] = tested on: M14
# [30] = tested on: MDA-MB-231
# [31] = tested on: LOX IMVI
# [32] = tested on: HOP-92
# [33] = tested on: NCI-H23
# [34] = tested on: TK-10
# [35] = tested on: HCT-116
# [36] = tested on: A549
# [37] = tested on: SF-295
# [38] = tested on: HL-60
# [39] = tested on: ACHN
# [40] = tested on: 786-0
# [41] = tested on: SF-268
# [42] = tested on: SNB-19
# [43] = tested on: OVCAR-3
# [44] = tested on: EKVX
# [45] = tested on: NCI-H522
# [46] = tested on: M19-MEL
# [47] = tested on: KM12
# [48] = tested on: OVCAR-8
# [49] = tested on: BT-549
# [50] = tested on: DMS-273
# [51] = tested on: NCI-H460
# [52] = tested on: SK-OV-3
# [53] = tested on: SF-539
# [54] = tested on: UACC-62
# [55] = tested on: MCF7
# [56] = tested on: SK-MEL-2
# [57] = tested on: OVCAR-4
# [58] = tested on: SNB-75
# [59] = tested on: T47D
# [60] = tested on: XF498
# [61] = tested on: OVCAR-5
# [62] = tested on: IGROV-1
# [63] = tested on: PC-3
# [64] = tested on: HCC 2998
# [65] = tested on: CAKI-1
# [66] = tested on: RXF 393
# [67] = tested on: K562
structure (smiles),measurement,setting,value
NCc1ccc(O)c(O)c1O,GI50,[1],20.3 µM (inactive)
same,GI50,[2],30.8 µM (inactive)
same,GI50,[3],75.3 µM (inactive)
same,GI50,[4],20 µM (inactive)
same,GI50,[5],10.7 µM (inactive)
same,GI50,[6],30.1 µM (inactive)
same,GI50,[7],20 µM (inactive)
same,GI50,[8],19.2 µM (inactive)
same,GI50,[9],16.8 µM (inactive)
same,GI50,[10],71.1 µM (inactive)
same,GI50,[11],> 10 µM (inactive)
same,GI50,[12],24.9 µM (inactive)
same,GI50,[13],> 56.8 µM (inactive)
same,GI50,[14],10.9 µM (inactive)
same,GI50,[15],> 46.8 µM (inactive)
same,GI50,[16],46.6 µM (inactive)
same,GI50,[17],18 µM (inactive)
same,GI50,[18],28.4 µM (inactive)
same,GI50,[19],21.7 µM (inactive)
same,GI50,[20],30.2 µM (inactive)
same,GI50,[21],62.5 µM (inactive)
same,GI50,[22],> 65.9 µM (inactive)
same,GI50,[23],18.8 µM (inactive)
same,GI50,[24],26.9 µM (inactive)
same,GI50,[25],24.7 µM
same,GI50,[26],16.9 µM (inactive)
same,GI50,[27],59.7 µM (inactive)
same,GI50,[28],62.5 µM (inactive)
same,GI50,[29],14.3 µM (inactive)
same,GI50,[30],19.7 µM (inactive)
same,GI50,[31],16.8 µM (inactive)
same,GI50,[32],> 58.6 µM (inactive)
same,GI50,[33],28.1 µM (inactive)
same,GI50,[34],> 100 µM (inactive)
same,GI50,[35],16.7 µM (inactive)
same,GI50,[36],27.6 µM (inactive)
same,GI50,[37],25.7 µM (inactive)
same,GI50,[38],30.3 µM (inactive)
same,GI50,[39],23.4 µM (inactive)
same,GI50,[40],15.9 µM (inactive)
same,GI50,[41],28.3 µM (inactive)
same,GI50,[42],54.5 µM (inactive)
same,GI50,[43],22.1 µM (inactive)
same,GI50,[44],39.7 µM (inactive)
same,GI50,[45],> 59 µM (inactive)
same,GI50,[46],12.8 µM (inactive)
same,GI50,[47],24.3 µM (inactive)
same,GI50,[48],23.9 µM (inactive)
same,GI50,[49],18.4 µM (inactive)
same,GI50,[50],16.9 µM (inactive)
same,GI50,[51],18.5 µM (inactive)
same,GI50,[52],> 78 µM (inactive)
same,GI50,[53],27.1 µM (inactive)
same,GI50,[54],27.1 µM (inactive)
same,GI50,[55],16.8 µM (inactive)
same,GI50,[56],22.5 µM (inactive)
same,GI50,[57],26.1 µM (inactive)
same,GI50,[58],26.4 µM (inactive)
same,GI50,[59],26.2 µM (inactive)
same,GI50,[60],26.9 µM (inactive)
same,GI50,[61],17.3 µM (inactive)
same,GI50,[62],38.9 µM (inactive)
same,GI50,[63],33 µM (inactive)
same,GI50,[64],> 66.4 µM (inactive)
same,GI50,[65],29.3 µM (inactive)
same,GI50,[66],40.7 µM (inactive)
same,GI50,[67],23.6 µM (inactive)
